pIC50: −log10 of the molar value.
Target: T1, Nav 1.7 (Homo sapiens, UniProt Q15858)
T1 construct: expressed in transfected cells
Assay: Whole-cell voltage clamp electrophysiology, automated patch clamp (marker c in Table of Examples)
Type: cell-based
Conditions: marker c = Automated patch clamp data; read-out: Nav 1.7 activity
In short: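 Human NaV1.7 currents were recorded by whole-cell automated patch clamp, on IonWorks Quattro or another automated platform, typically in perforated-patch configuration. The stimulus protocol was designed to probe block mainly of the inactivated state, with a typical sweep stepping from about −65 mV holding to −10 mV, then −100 mV.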

T1 sequence (Q15858 whole entry): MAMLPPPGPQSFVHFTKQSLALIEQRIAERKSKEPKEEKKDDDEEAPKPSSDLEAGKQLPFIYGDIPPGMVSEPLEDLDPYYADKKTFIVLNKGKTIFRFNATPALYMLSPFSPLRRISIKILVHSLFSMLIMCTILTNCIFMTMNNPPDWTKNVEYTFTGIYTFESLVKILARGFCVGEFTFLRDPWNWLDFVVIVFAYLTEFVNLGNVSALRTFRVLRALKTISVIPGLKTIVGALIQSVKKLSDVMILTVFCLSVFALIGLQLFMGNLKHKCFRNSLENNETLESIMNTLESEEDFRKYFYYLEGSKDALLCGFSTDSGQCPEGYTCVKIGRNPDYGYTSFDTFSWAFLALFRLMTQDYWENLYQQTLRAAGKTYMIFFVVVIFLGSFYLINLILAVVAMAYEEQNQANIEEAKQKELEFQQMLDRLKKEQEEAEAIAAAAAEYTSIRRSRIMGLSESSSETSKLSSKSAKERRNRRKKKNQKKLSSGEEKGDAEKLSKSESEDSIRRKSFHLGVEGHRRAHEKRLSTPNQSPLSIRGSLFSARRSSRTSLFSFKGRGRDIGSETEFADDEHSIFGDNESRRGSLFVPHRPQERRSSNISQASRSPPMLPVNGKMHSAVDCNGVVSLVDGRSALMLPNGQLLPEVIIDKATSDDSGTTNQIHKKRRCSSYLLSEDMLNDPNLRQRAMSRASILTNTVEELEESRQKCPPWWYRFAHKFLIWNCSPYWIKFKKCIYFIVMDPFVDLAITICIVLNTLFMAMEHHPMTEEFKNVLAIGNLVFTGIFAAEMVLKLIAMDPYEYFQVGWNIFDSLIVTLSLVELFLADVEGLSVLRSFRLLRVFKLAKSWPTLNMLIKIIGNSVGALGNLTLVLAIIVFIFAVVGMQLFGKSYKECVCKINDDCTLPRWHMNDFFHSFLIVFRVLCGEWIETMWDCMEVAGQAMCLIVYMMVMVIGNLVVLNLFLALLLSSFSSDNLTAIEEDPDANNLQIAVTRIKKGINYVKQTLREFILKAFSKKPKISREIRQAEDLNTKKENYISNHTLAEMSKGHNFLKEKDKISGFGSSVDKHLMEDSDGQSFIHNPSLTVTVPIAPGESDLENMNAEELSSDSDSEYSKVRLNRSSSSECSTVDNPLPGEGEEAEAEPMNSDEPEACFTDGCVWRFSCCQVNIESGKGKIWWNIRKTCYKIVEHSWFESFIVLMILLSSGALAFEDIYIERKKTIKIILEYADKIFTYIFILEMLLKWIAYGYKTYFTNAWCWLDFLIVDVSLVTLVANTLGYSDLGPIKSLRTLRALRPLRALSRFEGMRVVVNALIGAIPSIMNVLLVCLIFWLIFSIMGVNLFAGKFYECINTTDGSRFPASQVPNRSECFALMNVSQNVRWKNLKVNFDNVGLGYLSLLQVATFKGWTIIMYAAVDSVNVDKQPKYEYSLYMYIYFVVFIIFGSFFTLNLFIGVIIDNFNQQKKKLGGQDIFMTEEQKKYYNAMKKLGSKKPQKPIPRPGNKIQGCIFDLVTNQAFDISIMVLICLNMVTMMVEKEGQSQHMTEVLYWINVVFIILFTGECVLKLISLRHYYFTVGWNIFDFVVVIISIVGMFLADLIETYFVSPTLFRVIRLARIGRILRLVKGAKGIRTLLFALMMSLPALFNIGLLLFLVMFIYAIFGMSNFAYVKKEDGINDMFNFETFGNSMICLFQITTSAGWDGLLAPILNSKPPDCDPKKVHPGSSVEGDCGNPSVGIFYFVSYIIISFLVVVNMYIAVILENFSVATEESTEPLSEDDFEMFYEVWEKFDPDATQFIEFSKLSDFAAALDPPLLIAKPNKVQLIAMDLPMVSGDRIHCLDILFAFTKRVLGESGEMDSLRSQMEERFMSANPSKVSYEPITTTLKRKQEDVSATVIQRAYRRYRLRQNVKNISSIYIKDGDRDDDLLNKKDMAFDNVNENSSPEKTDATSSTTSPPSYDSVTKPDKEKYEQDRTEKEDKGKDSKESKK

Row | SMILES | pIC50
1 | CN(c1ccccc1)c1nc(N)nc(-c2noc(-c3ccc(COCC(F)(F)F)cn3)n2)n1 [Example 349, 2-N-methyl-2-N-phenyl-6-(5-{5-[(2,2,2-trifluoroethoxy)methyl]pyridin-2-yl}-1,2,4-oxadiazol-3-yl)-1,3,5-triazine-2,4-diamine] | 8.60
2 | Nc1nc(Nc2ccccc2)nc(-c2noc(-c3ccc(COCC(F)(F)F)cn3)n2)n1 [Example 350, 2-N-phenyl-6-(5-{5-[(2,2,2-trifluoroethoxy)methyl]pyridin-2-yl}-1,2,4-oxadiazol-3-yl)-1,3,5-triazine-2,4-diamine] | 8.40
3 | CN(c1ccccc1)c1nc(N)nc(-c2noc(-c3ccc(COCC(F)(F)F)cc3)n2)n1 [Example 351, 2-N-methyl-2-N-phenyl-6-(5-{4-[(2,2,2-trifluoroethoxy)methyl]phenyl}-1,2,4-oxadiazol-3-yl)-1,3,5-triazine-2,4-diamine] | 7.96
4 | CN(c1ccccc1)c1nc(N)nc(-c2noc(N3CCC(c4ccccc4)CC3)n2)n1 [Example 352, 2-N-methyl-2-N-phenyl-6-[5-(4-phenylpiperidin-1-yl)-1,2,4-oxadiazol-3-yl]-1,3,5-triazine-2,4-diamine] | 5.89
5 | CN(c1ccccc1)c1nc(N)nc(-c2noc([C@H]3CCCN3C(=O)OC(C)(C)C)n2)n1 [Example 353, tert-butyl (2R)-2-(3-{4-amino-6-[methyl(phenyl)amino]-1,3,5-triazin-2-yl}-1,2,4-oxadiazol-5-yl)pyrrolidine-1-carboxylate] | 6.05
6 | CN(c1ccccc1)c1nc(N)nc(-c2noc(N3CCC(Oc4ccccn4)CC3)n2)n1 [Example 354, 2-N-methyl-2-N-phenyl-6-{5-[4-(pyridin-2-yloxy)piperidin-1-yl]-1,2,4-oxadiazol-3-yl}-1,3,5-triazine-2,4-diamine] | 5.92
7 | CN(c1ccccc1)c1nc(N)nc(-c2noc(N3CCC(O)(c4ccccc4)CC3)n2)n1 [Example 355, 1-(3-{4-amino-6-[methyl(phenyl)amino]-1,3,5-triazin-2-yl}-1,2,4-oxadiazol-5-yl)-4-phenylpiperidin-4-ol] | 5.58
8 | CN(c1ccccc1)c1nc(N)nc(-c2noc(-c3ccc(OC4CCCCC4)nc3)n2)n1 [Example 356, 6-{5-[6-(cyclohexyloxy)pyridin-3-yl]-1,2,4-oxadiazol-3-yl}-2-N-methyl-2-N-phenyl-1,3,5-triazine-2,4-diamine] | 7.70
9 | CC(Oc1ccc(-c2nc(-c3nc(N)nc(N(C)c4ccccc4)n3)no2)cn1)C(F)(F)F (stereo not drawn) [Example 357, 2-N-methyl-2-N-phenyl-6-(5-{6-[(1,1,1-trifluoropropan-2-yl)oxy]pyridin-3-yl}-1,2,4-oxadiazol-3-yl)-1,3,5-triazine-2,4-diamine] | 7.26
10 | CC(OCC(F)(F)F)c1ccc(-c2nc(-c3nc(N)nc(N(C)c4ccccc4)n3)no2)nc1 (stereo not drawn) [Example 358, 2-N-Methyl-2-N-phenyl-6-(5-{5-[1-(2,2,2-trifluoroethoxy)ethyl]pyridin-2-yl}-1,2,4-oxadiazol-3-yl)-1,3,5-triazine-2,4-diamine] | 7.25
11 | CN(c1ccccc1)c1nc(N)nc(-c2noc(-c3ccc(OCCC(F)(F)F)nc3)n2)n1 [Example 359, 2-N-methyl-2-N-phenyl-6-{5-[6-(3,3,3-trifluoropropoxy)pyridin-3-yl]-1,2,4-oxadiazol-3-yl}-1,3,5-triazine-2,4-diamine] | 7.62
12 | COC1(c2ccccc2)CCN(c2nc(-c3nc(N)nc(N(C)c4ccccc4)n3)no2)CC1 [Example 360, 6-[5-(4-methoxy-4-phenylpiperidin-1-yl)-1,2,4-oxadiazol-3-yl]-2-N-methyl-2-N-phenyl-1,3,5-triazine-2,4-diamine] | 5.67
13 | CN(c1ccccc1)c1nc(N)nc(-c2noc(-c3ccc(OC4CCOCC4)nc3)n2)n1 [Example 361, 2-N-methyl-6-{5-[6-(oxan-4-yloxy)pyridin-3-yl]-1,2,4-oxadiazol-3-yl}-2-N-phenyl-1,3,5-triazine-2,4-diamine] | 6.56
14 | CN(c1ccccc1)c1nc(N)nc(-c2noc(N3CCC(SCC(F)(F)F)CC3)n2)n1 [Example 362, 2-N-methyl-2-N-phenyl-6-(5-{4-[(2,2,2-trifluoroethyl)sulfanyl]piperidin-1yl}-1,2,4-oxadiazol-3-yl)-1,3,5-triazine-2,4-diamine] | 6.15
15 | Nc1nc(Nc2ccccc2)nc(-c2noc(-c3ccc(OCCC(F)(F)F)nc3)n2)n1 [Example 363, 2-N-phenyl-6-{5-[6-(3,3,3-trifluoropropoxy)pyridin-3-yl]-1,2,4-oxadiazol-3-yl}-1,3,5-triazine-2,4-diamine] | 8.15
16 | CN1CCC(Oc2ccc(-c3nc(-c4nc(N)nc(N(C)c5ccccc5)n4)no3)cn2)C1 (stereo not drawn) [Example 364, 2-N-methyl-6-(5-{6-[(1-methylpyrrolidin-3-yl)oxy]pyridin-3-yl}-1,2,4-oxadiazol-3-yl)-2-N-phenyl-1,3,5-triazine-2,4-diamine] | 5.79
17 | CN(c1ccccc1)c1nc(N)nc(-c2noc(N3CCC(S(=O)(=O)CC(F)(F)F)CC3)n2)n1 [Example 365, 2-N-methyl-2-N-phenyl-6-(5-{4-[(2,2,2-trifluoroethane)sulfonyl]piperidin-1-yl}-1,2,4-oxadiazol-3-yl)-1,3,5-triazine-2,4-diamine] | < 5.07

Row | SMILES | pIC50
18 | CN(c1ccccc1)c1nc(N)nc(-c2noc(-c3ccc(OCCOCC(F)(F)F)nc3)n2)n1 [Example 366, 2-N-Methyl-2-N-phenyl-6-(5-{6-[2-(2,2,2-trifluoroethoxy)ethoxy]pyridin-3-yl}-1,2,4-oxadiazol-3-yl)-1,3,5-triazine-2,4-diamine] | 7.28
19 | CC(C)SC1CCN(c2nc(-c3nc(N)nc(N(C)c4ccccc4)n3)no2)CC1 [Example 367, 2-N-methyl-2-N-phenyl-6-{5-[4-(propan-2-ylsulfanyl)piperidin-1-yl]-1,2,4-oxadiazol-3-yl}-1,3,5-triazine-2,4-diamine] | 5.69
20 | CC(C)[S+]([O-])C1CCN(c2nc(-c3nc(N)nc(N(C)c4ccccc4)n3)no2)CC1 (stereo not drawn) [Example 368, 2-N-methyl-2-N-phenyl-6-{5-[4-(propane-2-sulfinyl)piperidin-1-yl]-1,2,4-oxadiazol-3-yl}-1,3,5-triazine-2,4-diamine] | 5.17
21 | CN(c1ccccc1)c1nc(N)nc(-c2noc(-c3ncccc3C(=O)NCC3CC3)n2)n1 [Example 369, 2-(3-{4-amino-6-[methyl(phenyl)amino]-1,3,5-triazin-2-yl}-1,2,4-oxadiazol-5-yl)-N-(cyclopropylmethyl)pyridine-3-carboxamide] | 5.88
22 | CN(c1ccccc1)c1nc(N)nc(-c2noc(-c3cccnc3C(=O)NCC3CC3)n2)n1 [Example 370, 3-(3-{4-amino-6-[methyl(phenyl)amino]-1,3,5-triazin-2-yl}-1,2,4-oxadiazol-5-yl)-N-(cyclopropylmethyl)pyridine-2-carboxamide] | 5.45
23 | CN(c1ccccc1)c1nc(N)nc(-c2noc(-c3ncccc3C(=O)NC3CCC3)n2)n1 [Example 371, 2-(3-{4-amino-6-[methyl(phenyl)amino]-1,3,5-triazin-2-yl}-1,2,4-oxadiazol-5-yl)-N-cyclobutylpyridine-3-carboxamide] | 5.14
24 | CN(c1ccccc1)c1nc(N)nc(-c2noc(-c3ccc(OCC(F)F)nc3)n2)n1 [Example 372, 6-{5-[6-(2,2-difluoroethoxy)pyridin-3-yl]-1,2,4-oxadiazol-3-yl}-2-N-methyl-2-N-phenyl-1,3,5-triazine-2,4-diamine] | 6.81
25 | CN(c1ccccc1)c1nc(N)nc(-c2noc(-c3cccnc3C(=O)NC3CC3)n2)n1 [Example 373, 3-(3-{4-amino-6-[methyl(phenyl)amino]-1,3,5-triazin-2-yl}-1,2,4-oxadiazol-5-yl)-N-cyclopropylpyridine-2-carboxamide] | 5.31
26 | CN(c1ccccc1)c1nc(N)nc(-c2noc(-c3cccnc3C(=O)NC3CCC3)n2)n1 [Example 374, 3-(3-{4-amino-6-[methyl(phenyl)amino]-1,3,5-triazin-2-yl}-1,2,4-oxadiazol-5-yl)-N-cyclobutylpyridine-2-carboxamide] | 5.68
27 | CN(c1ccccc1)c1nc(N)nc(-c2noc(-c3cccnc3C(=O)NCC(F)(F)F)n2)n1 [Example 375, 3-(3-{4-amino-6-[methyl(phenyl)amino]-1,3,5-triazin-2-yl}-1,2,4-oxadiazol-5-yl)-N-(2,2,2-trifluoroethyl)pyridine-2-carboxamide] | 5.82
28 | CN(c1ccccc1)c1nc(N)nc(-c2noc(-c3ncccc3C(=O)NC3CC3)n2)n1 [Example 376, 2-(3-{4-amino-6-[methyl(phenyl)amino]-1,3,5-triazin-2-yl}-1,2,4-oxadiazol-5-yl)-N-cyclopropylpyridine-3-carboxamide] | 5.02
29 | CN(c1ccccc1)c1nc(N)nc(-c2noc(-c3ncccc3C(=O)OCC3CC3)n2)n1 [Example 377] | 6.63
30 | CN(c1ccccc1)c1nc(N)nc(-c2noc(-c3cccnc3C(=O)OCC3CC3)n2)n1 [Example 378, cyclopropylmethyl 3-(3-{4-amino-6-[methyl(phenyl)amino]-1,3,5-triazin-2-yl}-1,2,4-oxadiazol-5-yl)pyridine-2-carboxylate] | 6.40
31 | CN(c1ccccc1)c1nc(N)nc(-c2noc(-c3ncccc3C(=O)OC3CCCC3)n2)n1 [Example 379, cyclopentyl 2-(3-{4-amino-6-[methyl(phenyl)amino]-1,3,5-triazin-2-yl}-1,2,4-oxadiazol-5-yl)pyridine-3-carboxylate] | 6.41
32 | CN(c1ccccc1)c1nc(N)nc(-c2noc(-c3cccnc3C(=O)OC3CCCC3)n2)n1 [Example 380, cyclopentyl 3-(3-{4-amino-6-[methyl(phenyl)amino]-1,3,5-triazin-2-yl}-1,2,4-oxadiazol-5-yl)pyridine-2-carboxylate] | 7.08
33 | CN(c1ccccc1)c1nc(N)nc(-c2noc(-c3ncccc3C(=O)NCC(F)(F)F)n2)n1 [Example 381, 2-(3-{4-amino-6-[methyl(phenyl)amino]-1,3,5-triazin-2-yl}-1,2,4-oxadiazol-5-yl)-N-(2,2,2-trifluoroethyl)pyridine-3-carboxamide] | 5.31

Reference: US8895733B2 (Novartis AG, priority 2010, dated 2014)
